Results reported in patent US20030032587A1, “Urocortin peptides” (The Salk Institute for Biological Studies, priority 1995, published 2003).
Bridges are numbered along the chain shown (N, C = ends). Where no end group is shown, it is not given here. [ ]: non-standard residue; d: D form.

What was measured:
[1] = tested on: mammalian systemic blood pressure; assay: mammalian vasodilatory-hypotensive activity; format: in vivo; settings: result in words
[2] = tested on: primary murine anterior pituitary cells; format: cell-based; settings: for ACTH secretion in vitro, times as effective as r/hCRF (confidence limits): anterior pituitary cell cultures, relative to r/hCRF; for stimulates the secretion of ACTH and β-END-LI (β-endorphin): result in words
Text: (§1) A straightforward assay using rat anterior pituitary cells in monolayer culture can be carried out to determine whether a candidate peptide thereof will function as a CRF agonist and stimulate ACTH secretion by activating CRF receptors on such cells. The procedure which is used is that generally set forth in Endocrinology, 91, supra. A very similar assay is used to test for antagonistic properties, using a challenge dose of oCRF or the like.
To test the ability of purified Ucn or another candidate Ucn-like peptide to function as a CRF agonist and to promote ACTH production and/or secretion, cultures of dispersed primary murine anterior pituitary cells (0.15×10^6 cells/well are used), as generally described in Vale et al. Meth. Enzym., 103, 565-577 (1983), and in Endocrinology, 91, 562 (1972). These cultures are maintained in 0.5 ml/well of β-PJ (a reagent available from Kansas City Biochemicals) containing 2% fetal bovine serum. On the morning of culture day 5, the cells are washed 3 times with β-PJ containing 0.1% bovine serum albumin and then incubated for 1 hour at 37° C. in the same medium. The medium is then replaced with Ucn, or an analog thereof, diluted in β-PJ containing 0.1% bovine serum albumin. Incubations are terminated after 3 hours, at which time the medium is removed and stored at −20° C. until ACTH radioimmunoassays are performed using a suitable kit, such as that commercially available from Diagnostic Products Corporation of Los Angeles, Calif. Secreted ACTH is measured using Allfit computer program with results expressed as the average±s.e.m. of 3 replicate bioassays.

[3] = tested on: rat anterior pituitary cells; assay: ACTH secretion by anterior pituitary cell cultures in the presence of a challenge dose of ovine CRF (antagonist test); format: cell-based; settings: result in words; test not specified
Text: as §1
An in vivo test measuring elevation of mean arterial blood pressure as a result of iv injection is also simply and straightforwardly performed.

[4] = biological target: CRF receptors on anterior pituitary cells in culture; assay: cell-based or functional assay

antagonism of ACTH secretion under a challenge dose of ovine CRF, potency relative to the Standard Antagonist (times Standard Antagonist) [4] | Molecule | vasodilatory-hypotensive activity, including lowering systemic blood pressure and stimulating the secretion of ACTH [1] | ACTH secretion in vitro, times as effective as r/hCRF (confidence limits) [2] | stimulates the secretion of ACTH and β-END-LI (β-endorphin) [2] | bioactivity as Ucn antagonists [3]
 | Ac-Pro-D-Pro-Leu-Ser-Ile-Asp-Leu-Thr-D-Phe-His-Leu-Leu-Arg-Thr-Leu-Leu-Glu-Leu-Ala-Arg-Thr-Gln-Ser-Gln-Arg-Glu-Glu-Ala-Glu-Lys-Asn-Arg-Ile-Ile-Phe-Asp-Ser-Val-NH2 (Ac-P[dP]LSIDLT[dF]HLLRTLLELARTQSQREEAEKNRIIFDSV-NH2; lactam 27-30 (inferred)) | causes vasodilatory-hypotensive activity | 9.90 (4.48-22.85) | stimulates the secretion of ACTH and β-END-LI | 
 | Ac-Pro-D-Ser-Leu-Ser-Ile-Asp-Leu-Thr-D-Phe-His-Leu-Leu-Arg-Thr-Leu-Leu-Glu-Leu-Ala-Arg-Thr-Gln-Ser-Gln-Arg-Glu-Glu-Ala-Glu-Lys-Asn-Arg-Ile-Ile-Phe-Asp-Ser-Val-NH2 (Ac-P[dS]LSIDLT[dF]HLLRTLLELARTQSQREEAEKNRIIFDSV-NH2; lactam 27-30 (inferred)) | causes vasodilatory-hypotensive activity | 5.69 (2.43-14.49) | stimulates the secretion of ACTH and β-END-LI | 
 | Ac-Pro-Ser-Leu-Ser-Ile-Asp-Leu-Thr-D-Phe-His-Leu-Leu-Arg-Thr-Leu-Leu-Glu-Leu-Ala-Arg-Thr-Gln-Ser-Gln-Arg-Glu-Glu-Ala-D-Glu-Lys-Asn-Arg-Ile-Ile-Phe-Asp-Ser-Val-NH2 (Ac-PSLSIDLT[dF]HLLRTLLELARTQSQREEA[dE]KNRIIFDSV-NH2; lactam 27-30 (inferred)) | causes vasodilatory-hypotensive activity | 6.14 (2.83-14.05) | stimulates the secretion of ACTH and β-END-LI | 
 | H-Asp-Asn-Pro-Ser-Leu-Ser-Ile-Asp-Leu-Thr-Phe-His-Leu-Leu-Arg-Thr-Leu-Leu-Glu-Leu-Ala-Arg-Thr-Gln-Ser-Gln-Arg-Glu-Arg-Ala-Glu-Gln-Asn-Arg-Ile-Ile-Phe-Asp-Ser-Val-NH2 (H-DNPSLSIDLTFHLLRTLLELARTQSQRERAEQNRIIFDSV-NH2) [Human Ucn(1-40)] | significant mammalian vasodilatory-hypotensive activity | 3.10 (1.41-6.65) |  | 
 | H-DNPSLSIDLT[dF]HLLRTLLELARTQSQRERAEQNRIIFDSV-NH2 [[D-Phe^11]-hUcn] | significant mammalian vasodilatory-hypotensive activity |  |  | 
 | H-Asn-Pro-Ser-Leu-Ser-Ile-Asp-Leu-Thr-Phe-His-Leu-Leu-Arg-Thr-Leu-Leu-Glu-Leu-Ala-Arg-Thr-Gln-Ser-Gln-Arg-Glu-Arg-Ala-Glu-Gln-Asn-Arg-Ile-Ile-Phe-Asp-Ser-Val-NH2 (H-NPSLSIDLTFHLLRTLLELARTQSQRERAEQNRIIFDSV-NH2) [hUcn(2-40)] | significant mammalian vasodilatory-hypotensive activity |  |  | 
 | Ac-Pro-Ser-Leu-Ser-Ile-Asp-Leu-Thr-Phe-His-Leu-Leu-Arg-Thr-Leu-Leu-Glu-Leu-Ala-Arg-Thr-Gln-Ser-Gln-Arg-Glu-Arg-Ala-Glu-Gln-Asn-Arg-Ile-Ile-Phe-Asp-Ser-Val-NH2 (Ac-PSLSIDLTFHLLRTLLELARTQSQRERAEQNRIIFDSV-NH2) [[Ac-Pro^3]-hUcn(3-40)] | causes vasodilatory-hypotensive activity |  | stimulates the secretion of ACTH and β-END-LI | 
 | [Ac-Thr^10]Ucn(10-40) |  |  |  | bioactivity as Ucn antagonists
 | H-Tyr-Asp-Asp-Pro-Pro-Leu-Ser-Ile-Asp-Leu-Thr-Phe-His-Leu-Leu-Arg-Thr-Leu-Leu-Glu-Leu-Ala-Arg-Thr-Gln-Ser-Gln-Arg-Glu-Arg-Ala-Glu-Gln-Asn-Arg-Ile-Ile-Phe-Asp-Ser-val-NH2 [[Tyr^∘]rUcn(1-40)] | significant mammalian vasodilatory-hypotensive activity | 2.20 (1.28-3.88) |  | 
 | Ucn (10-40) (TFHLLRTLLELARTQSQRERAEQNRIIFDSV; ends and bridges not checked; UniProt P55089 92-122, looked up, fragment) |  |  |  | bioactivity as Ucn antagonists
 | H-[dY]DNPSLSIDLTFHLLRTLLELARTQSQRERAEQNRIIFDSV-NH2 [[D-Tyr^∘]hUcn(1-40)] | significant mammalian vasodilatory-hypotensive activity | 1.23 (0.60-2.54) |  | 
4.99 | [dP][dF]HLLRTLLELARTQSQREEA[dE]KNRIIFDSV-NH2 (lactam 20-23; N-terminus assumed; SMILES CC[C@H](C)[C@H](NC(=O)[C@H](CCCNC(=N)N)NC(=O)[C@H](CC(N)=O)NC(=O)[C@@H]1CCCCNC(=O)CC[C@H](NC(=O)[C@H](CCC(=O)O)NC(=O)[C@H](CCCNC(=N)N)NC(=O)[C@H](CCC(N)=O)NC(=O)[C@H](CO)NC(=O)[C@H](CCC(N)=O)NC(=O)[C@@H](NC(=O)[C@H](CCCNC(=N)N)NC(=O)[C@H](C)NC(=O)[C@H](CC(C)C)NC(=O)[C@H](CCC(=O)O)NC(=O)[C@H](CC(C)C)NC(=O)[C@H](CC(C)C)NC(=O)[C@@H](NC(=O)[C@H](CCCNC(=N)N)NC(=O)[C@H](CC(C)C)NC(=O)[C@H](CC(C)C)NC(=O)[C@H](Cc2c[nH]cn2)NC(=O)[C@@H](Cc2ccccc2)NC(=O)[C@H]2CCCN2)[C@@H](C)O)[C@@H](C)O)C(=O)N[C@@H](C)C(=O)N[C@H](CCC(=O)O)C(=O)N1)C(=O)N[C@H](C(=O)N[C@@H](Cc1ccccc1)C(=O)N[C@@H](CC(=O)O)C(=O)N[C@@H](CO)C(=O)N[C@H](C(N)=O)C(C)C)[C@@H](C)CC) [(cyclo 29-32) [D-Pro10,D-Phe11, Glu29, D-Glu31, Lys32]-Ucn(10-40)] |  |  |  | 
2.74 | P[dF]HLLRTLLELARTQSQREEA[dE]KNRIIFDSV-NH2 (lactam 20-23; N-terminus assumed; SMILES CC[C@H](C)[C@H](NC(=O)[C@H](CCCNC(=N)N)NC(=O)[C@H](CC(N)=O)NC(=O)[C@@H]1CCCCNC(=O)CC[C@H](NC(=O)[C@H](CCC(=O)O)NC(=O)[C@H](CCCNC(=N)N)NC(=O)[C@H](CCC(N)=O)NC(=O)[C@H](CO)NC(=O)[C@H](CCC(N)=O)NC(=O)[C@@H](NC(=O)[C@H](CCCNC(=N)N)NC(=O)[C@H](C)NC(=O)[C@H](CC(C)C)NC(=O)[C@H](CCC(=O)O)NC(=O)[C@H](CC(C)C)NC(=O)[C@H](CC(C)C)NC(=O)[C@@H](NC(=O)[C@H](CCCNC(=N)N)NC(=O)[C@H](CC(C)C)NC(=O)[C@H](CC(C)C)NC(=O)[C@H](Cc2c[nH]cn2)NC(=O)[C@@H](Cc2ccccc2)NC(=O)[C@@H]2CCCN2)[C@@H](C)O)[C@@H](C)O)C(=O)N[C@@H](C)C(=O)N[C@H](CCC(=O)O)C(=O)N1)C(=O)N[C@H](C(=O)N[C@@H](Cc1ccccc1)C(=O)N[C@@H](CC(=O)O)C(=O)N[C@@H](CO)C(=O)N[C@H](C(N)=O)C(C)C)[C@@H](C)CC) [(cyclo 29-32) [Pro10,D-Phe11, Glu29,D-Glu31, Lys32]-Ucn(10-40)] |  |  |  | 
